In one test the target is T1, human orexin 2 receptors (Homo sapiens, UniProt O43614).
T1 sequence (O43614 1-444): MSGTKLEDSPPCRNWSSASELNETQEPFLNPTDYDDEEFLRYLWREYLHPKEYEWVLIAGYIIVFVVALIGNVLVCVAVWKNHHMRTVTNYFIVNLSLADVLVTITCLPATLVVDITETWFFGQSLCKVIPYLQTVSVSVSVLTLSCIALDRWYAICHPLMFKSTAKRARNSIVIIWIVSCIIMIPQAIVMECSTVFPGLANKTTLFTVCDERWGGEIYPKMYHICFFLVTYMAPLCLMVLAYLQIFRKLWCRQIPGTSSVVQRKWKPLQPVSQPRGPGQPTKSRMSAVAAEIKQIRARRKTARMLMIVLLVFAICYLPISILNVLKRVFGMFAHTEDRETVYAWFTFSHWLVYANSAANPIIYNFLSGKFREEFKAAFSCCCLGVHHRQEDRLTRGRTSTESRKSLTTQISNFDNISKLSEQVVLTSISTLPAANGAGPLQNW
Put plainly: Calcium accumulation in cells (FLIPR), hOx2R. In kind it is cell-based. The conditions noted are these: cells expressing human orexin 2 receptor; inhibition of orexin A-induced calcium accumulation; Cheng and Prusoff correction.

Another test deals with T2, human orexin 1 receptors (Homo sapiens, UniProt O43613).
T2 sequence (O43613 1-425): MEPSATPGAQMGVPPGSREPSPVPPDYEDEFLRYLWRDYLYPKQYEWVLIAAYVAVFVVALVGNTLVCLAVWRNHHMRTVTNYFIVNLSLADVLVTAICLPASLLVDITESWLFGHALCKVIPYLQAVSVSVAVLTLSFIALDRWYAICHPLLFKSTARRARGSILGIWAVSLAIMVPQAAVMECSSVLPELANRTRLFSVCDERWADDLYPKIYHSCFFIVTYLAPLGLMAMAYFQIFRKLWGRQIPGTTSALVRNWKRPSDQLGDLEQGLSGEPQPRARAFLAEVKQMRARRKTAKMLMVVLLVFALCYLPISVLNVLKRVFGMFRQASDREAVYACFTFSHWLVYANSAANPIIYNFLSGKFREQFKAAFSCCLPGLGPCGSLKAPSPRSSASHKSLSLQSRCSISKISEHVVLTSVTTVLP
Nature of the test: Calcium accumulation in cells (FLIPR), hOx1R. The conditions noted are these: for inhibition at 10 µM: read-out: FLIPR hOx1R % inhibition value.

Structures are written as SMILES. Where only a bound is given, the exact number is not on record here.

Procedure for human orexin 1 receptors: Cells expressing human orexin 1 or human orexin 2 receptors, were seeded at 8,000 cells/well in 384 well black-walled clear bottom, poly-D-lysine coated plates. After 24 h, the medium was removed and cells were washed once with phosphate buffered saline and serum-deprived overnight in assay buffer (130 mM NaCl, 5.4 mM KCl, 1.8 mM CaCl2, 0.8 mM MgSO4, 0.9 mM NaH2PO4, 25 mM glucose, 20 mM HEPES, pH 7.4) containing bovine serum albumin (1% w/v).
On the day of the experiment, the cells seeded in black plates were treated with assay buffer containing the Ca^2+sensitive fluorescent dye Fluo-4-AM (2 μM), and probenecid (0.1 mM). After 1 h plates were washed twice with, and resuspended in, assay buffer containing probenecid (0.1 mM) using a multi plate washer. The plates were placed into a FLIPR II (Fluorometric Imaging Plate Reader, Molecular Devices, Sunnyvale, Calif., USA) and baseline fluorescence (fluorescence light units, FLU) was measured (5 measurements, 2 S each; laser excitation 488 nm at 0.6-1 W, CCD camera exposure 0.4 s) before addition of buffer alone (basal) or containing test compounds (either compound of formula I alone, agonist alone or agonist in the presence of various concentrations of compounds of formula I). Fluorescence measurements were then continued every 1 S for 120 S followed by every 4 S for 240 S.
Compounds of formula I were tested usually in a concentration range from 10^−9 M to 10^−5 M. In the second round, performed one hour later (to allow for equilibration), Orexin A was tested either in the absence (calibration curves, Orexin A agonist controls) or in the presence of compounds of formula I to determine antagonism.
Inhibition data is expressed in Table 2 as Ki [μM], converted by the Cheng and Prusoff correction (Ki=IC50/1+(L/EC50)), where IC50 is the 50% inhibition value determined in concentration response inhibition curves, EC50 is the half maximal activation concentration determined for orexin A in concentration response curves and L is the concentration of orexin A used in inhibition experiments performed in with a submaximal concentration of orexin A in the presence of up to 8 increasing concentrations of compound of formula I. Inhibition data is also expressed in Table 2 as % inhibition value measured at a concentration of 10 μM of selected compounds of formula I.

What is called Ki is a measure of affinity in units of concentration, obtained from inhibition or displacement. `CC(C)c1ccnc(N2CCC3(CCCN(Cc4c[nH]c5ccccc45)C3=O)CC2)n1` [Example 50, 2-((1H-indol-3-yl)methyl)-9-(4-isopropylpyrimidin-2-yl)-2,9-diazaspiro[5.5]undecan-1-one]: the Ki at human orexin 2 receptors turned out to be 223 nM; at human orexin 1 receptors, 1860 nM.
In the case of `CCOc1ccnc(N2CCC3(CCCN(Cc4c[nH]c5ccccc45)C3=O)CC2)n1` [Example 52, 2-((1H-indol-3-yl)methyl)-9-(4-ethoxypyrimidin-2-yl)-2,9-diazaspiro[5.5]undecan-1-one], the Ki at human orexin 2 receptors was found to be 125 nM; on human orexin 1 receptors it was 1060 nM.
In the same order, the values of `Cn1cc(CN2CCCC3(CCN(c4cncc(Cl)n4)CC3)C2=O)c2ccccc21` [Example 53, 9-(6-chloropyrazin-2-yl)-2-((1-methyl-1H-indol-3-yl)methyl)-2,9-diazaspiro[5.5]undecan-1-one] are 420 nM and 2740 nM.
Consider `CCn1cc(CN2CCCC3(CCN(c4nc(C)cc(C)n4)CC3)C2=O)c2ccccc21` [Example 54, 9-(4,6-dimethylpyrimidin-2-yl)-2-((1-ethyl-1H-indol-3-yl)methyl)-2,9-diazaspiro[5.5]undecan-1-one], for which the Ki worked out at 149 nM on human orexin 2 receptors and 3150 nM at human orexin 1 receptors.
As a reminder, the inhibition is the drop in the measured response relative to a control, in per cent. With `COc1cncc(N2CCC3(CCCC(=O)N3Cc3c[nH]c4ccccc34)CC2)n1` [Example 55, 1-((1H-indol-3-yl)methyl)-9-(6-methoxypyrazin-2-yl)-1,9-diazaspiro[5.5]undecan-2-one], the Ki at human orexin 2 receptors was 727 nM. The inhibition at 10 µM at human orexin 1 receptors is 40%.
The like results for `COc1cncc(N2CCC3(CCCN(Cc4cccc5c4OCCO5)C3=O)CC2)n1` [Example 56, 2-((2,3-dihydrobenzo[b][1,4]dioxin-5-yl)methyl)-9-(6-methoxypyrazin-2-yl)-2,9-diazaspiro[5.5]undecan-1-one] were, in that order, 718 nM and 35%.
Turning to `Cc1cccc(N2CCC3(CCCN(Cc4c[nH]c5ccccc45)C3=O)CC2)c1` [Example 57, 2-((1H-indol-3-yl)methyl)-9-m-tolyl-2,9-diazaspiro[5.5]undecan-1-one], the Ki was determined as 171 nM at human orexin 2 receptors and 3750 nM at human orexin 1 receptors.
With `Cc1cncc(N2CCC3(CCCN(Cc4c[nH]c5ccccc45)C3=O)CC2)c1` [Example 58, 2-((1H-indol-3-yl)methyl)-9-(5-methylpyridin-3-yl)-2,9-diazaspiro[5.5]undecan-1-one], the Ki at human orexin 2 receptors was found to be 156 nM. Further, on human orexin 1 receptors, the inhibition at 10 µM turned out to be 31%.
In the same order, the values of `COc1ccc(N2CCC3(CCCN(Cc4c[nH]c5ccccc45)C3=O)CC2)cc1OC` [Example 59, 2-((1H-indol-3-yl)methyl)-9-(3,4-dimethoxyphenyl)-2,9-diazaspiro[5.5]undecan-1-one] are 1380 nM and 15%.
As for `COc1cccc(N2CCC3(CCCN(Cc4c[nH]c5ccccc45)C3=O)CC2)c1` [Example 60, 2-((1H-indol-3-yl)methyl)-9-(3-methoxyphenyl)-2,9-diazaspiro[5.5]undecan-1-one], the Ki came out at 228 nM at human orexin 2 receptors and 3110 nM on human orexin 1 receptors.
With `COc1cncc(N2CCC3(CCCN(Cc4c[nH]c5ccccc45)C3=O)CC2)c1` [Example 62, 2-((1H-indol-3-yl)methyl)-9-(5-methoxypyridin-3-yl)-2,9-diazaspiro[5.5]undecan-1-one], the Ki on human orexin 2 receptors turned out to be 117 nM. Also, the inhibition at 10 µM at human orexin 1 receptors was 31%.
Regarding `Cc1cc(N2CCC3(CCCN(Cc4c[nH]c5ccccc45)C3=O)CC2)cc(C)n1` [Example 63, 2-((1H-indol-3-yl)methyl)-9-(2,6-dimethylpyridin-4-yl)-2,9-diazaspiro[5.5]undecan-1-one], the Ki on human orexin 2 receptors was 1280 nM. In addition, the inhibition at 10 µM at human orexin 1 receptors came out at 16%.
For the compound `Cc1ccc(N2CCC3(CCCN(Cc4c[nH]c5ccccc45)C3=O)CC2)nc1C` [Example 64, 2-((1H-indol-3-yl)methyl)-9-(5,6-dimethylpyridin-2-yl)-2,9-diazaspiro[5.5]undecan-1-one], the values for the Ki on human orexin 2 receptors and at human orexin 1 receptors were 150 nM and 3370 nM, respectively.
In the case of `Cc1cccnc1N1CCC2(CCCN(Cc3c[nH]c4ccccc34)C2=O)CC1` [Example 66, 2-((1H-indol-3-yl)methyl)-9-(3-methylpyridin-2-yl)-2,9-diazaspiro[5.5]undecan-1-one], the Ki at human orexin 2 receptors was 991 nM. In addition, at human orexin 1 receptors, the inhibition at 10 µM was 36%.
In the same order, the values of `Cc1ccc(N2CCC3(CCCN(Cc4c[nH]c5ccccc45)C3=O)CC2)nc1` [Example 68, 2-((1H-indol-3-yl)methyl)-9-(5-methylpyridin-2-yl)-2,9-diazaspiro[5.5]undecan-1-one] are 798 nM and 14%.
The like results for `N#Cc1ccc(N2CCC3(CCCN(Cc4c[nH]c5ccccc45)C3=O)CC2)nc1` [Example 69, 6-(2-((1H-indol-3-yl)methyl)-1-oxo-2,9-diazaspiro[5.5]undecan-9-yl)nicotinonitrile] were, in that order, 320 nM and 31%.
In the case of `Cc1nccc(N2CCC3(CCCN(Cc4c[nH]c5ccccc45)C3=O)CC2)n1` [Example 70, 2-((1H-indol-3-yl)methyl)-9-(2-methylpyrimidin-4-yl)-2,9-diazaspiro[5.5]undecan-1-one], the Ki on human orexin 2 receptors was 240 nM; on human orexin 1 receptors, 1810 nM.
For `Cc1cc(N2CCC3(CCCN(Cc4c[nH]c5ccccc45)C3=O)CC2)nc(C)n1` [Example 71, 2-((1H-indol-3-yl)methyl)-9-(2,6-dimethylpyrimidin-4-yl)-2,9-diazaspiro[5.5]undecan-1-one], the Ki on human orexin 2 receptors was 166 nM. On human orexin 1 receptors, the inhibition at 10 µM was 31%.
The like results for `Cc1cnc(N2CCC3(CCCN(Cc4c[nH]c5ccccc45)C3=O)CC2)cn1` [Example 72, 2-((1H-indol-3-yl)methyl)-9-(5-methylpyrazin-2-yl)-2,9 diazaspiro[5.5]undecan-1-one] were, in that order, 280 nM and 16%.
In the same order, the values of `COCc1cccc(N2CCC3(CCCN(Cc4c[nH]c5ccccc45)C3=O)CC2)n1` [Example 73, 2-((1H-indol-3-yl)methyl)-9-(6-(methoxymethyl)pyridin-2-yl)-2,9-diazaspiro[5.5]undecan-1-one] are 639 nM and 30%.
In the same order, the values of `N#Cc1cc(C#N)nc(N2CCC3(CCCN(Cc4c[nH]c5ccccc45)C3=O)CC2)n1` [Example 76, 2-(2-((1H-indol-3-yl)methyl)-1-oxo-2,9-diazaspiro[5.5]undecan-9-yl)pyrimidine-4,6-dicarbonitrile] are 1130 nM and under 10%.
For the compound `N#Cc1cncc(N2CCC3(CCCN(Cc4c[nH]c5ccccc45)C3=O)CC2)n1` [Example 77, 6-(2-((1H-indol-3-yl)methyl)-1-oxo-2,9-diazaspiro[5.5]undecan-9-yl)pyrazine-2-carbonitrile], the Ki was 173 nM at human orexin 2 receptors and 3630 nM at human orexin 1 receptors.
`CCc1ccnc(N2CCC3(CCCN(Cc4c[nH]c5ccccc45)C3=O)CC2)n1` [Example 79, 2-((1H-indol-3-yl)methyl)-9-(4-ethylpyrimidin-2-yl)-2,9-diazaspiro[5.5]undecan-1-one]: the Ki was determined as 126 nM at human orexin 2 receptors and 708 nM at human orexin 1 receptors.
On to `Cc1nnc(N2CCC3(CCCN(Cc4c[nH]c5ccccc45)C3=O)CC2)s1` [Example 85, 2-((1H-indol-3-yl)methyl)-9-(5-methyl-1,3,4-thiadiazol-2-yl)-2,9-diazaspiro[5.5]undecan-1-one], for which the Ki at human orexin 2 receptors turned out to be 664 nM. Besides, on human orexin 1 receptors, the inhibition at 10 µM was determined as 42%.
In the same order, the values of `Cc1cnc(C)c(N2CCC3(CCCN(Cc4c[nH]c5ccccc45)C3=O)CC2)n1` [Example 86, 2-((1H-indol-3-yl)methyl)-9-(3,6-dimethylpyrazin-2-yl)-2,9-diazaspiro[5.5]undecan-1-one] are 545 nM and 22%.
In the same order, the values of `COc1cc(N2CCC3(CCCN(Cc4c[nH]c5ccccc45)C3=O)CC2)ncn1` [Example 87, 2-((1H-indol-3-yl)methyl)-9-(6-methoxypyrimidin-4-yl)-2,9-diazaspiro[5.5]undecan-1-one] are 351 nM and 20%.
In the same order, the values of `O=C1N(Cc2c[nH]c3ccccc23)CCCC12CCN(c1ccc(C(F)(F)F)cn1)CC2` [Example 89, 2-((1H-indol-3-yl)methyl)-9-(5-(trifluoromethyl)pyridin-2-yl)-2,9-diazaspiro[5.5]undecan-1-one] are 426 nM and 18%.
Regarding `Cc1ccnc(N2CCC3(CCCC(=O)N3Cc3ccccc3-c3nc(C)no3)CC2)n1` [Example 99, 1-(2-(3-methyl-1,2,4-oxadiazol-5-yl)benzyl)-9-(4-methylpyrimidin-2-yl)-1,9-diazaspiro[5.5]undecan-2-one], the Ki at human orexin 2 receptors worked out at 614 nM. On human orexin 1 receptors, the inhibition at 10 µM is 12%.

The values above are taken from patent US20120101110A1, “Diaza-spiro[5.5]undecanes” (priority 2010, published 2012).
